This note sets out measurements from publication PMC6017654, “Ionic Liquid-Promoted Synthesis of Novel Chromone-Pyrimidine Coupled Derivatives, Antimicrobial Analysis, Enzyme Assay, Docking Study and Toxicity Study” (Molecules : A Journal of Synthetic Chemistry and Natural …, 2018).

For data set [1], the system named is Staphylococcus aureus (NCIM-2901). As to the kind of experiment: In vitro antibacterial activity (MIC100, two fold serial dilution, NCCLS). It counts as cell-based. The note with it: Staphylococcus aureus, NCIM2901, 24 h, read-out: MIC100, S. aureus NCIM-2901, average of three readings. The protocol:
(§1) All the synthesized compounds 4(a–f) and 6(a–f) were screened for their in vitro antibacterial activity against Staphylococcus aureus (NCIM-2901), Escherichia coli 1411 (standard laboratory strains) and Escherichia coli SM1411 (an acrAB deficient derivative of 1411). Minimum inhibitory concentration (MIC100) values were determined using methods recommended by National Committee for Clinical Laboratory Standards (NCCLS). Dimethyl sulfoxide (DMSO) was used as solvent control.
(§2) All the synthesized compounds 4(a–f) and 6(a–f) were screened for their in vitro antibacterial activity against Staphylococcus aureus (NCIM-2901) and Escherichia coli 1411 (standard laboratory strains) and Escherichia coli SM1411 (an acrAB deficient derivative of 1411). Minimum inhibitory concentration (MIC100) values were determined using the method recommended by National Committee for Clinical Laboratory Standards (NCCLS). In vitro antibacterial activities of the synthesized compounds 4(a–f) and 6(a–f) were tested in Nutrient Broth (NB) for Bacteria by the two fold serial dilution method. Seeded broth (broth containing microbial spores) was prepared in NB from 24 h old bacterial cultures on nutrient agar (Hi-media) at 37 ± 1 °C. The bacterial suspension was adjusted with sterile saline to a concentration of […]. The synthesized compounds and standard drug D-cycloserine were prepared by two fold serial dilutions to obtain the required concentrations. The tubes were incubated in BOD incubators at 37 ± 1 °C for bacteria. The MICs were recorded by visual observations after 24 h (for bacteria) of incubation.

Data set [2] relates to Escherichia coli SM1411 (an acrAB deficient derivative of 1411). The description is as above. The conditions noted are these: 24 h, read-out: MIC100. It is filed as cell-based. As for the experimental part:
as §1, §2

In another data set the test system is Escherichia coli 1411. Described as above. It counts as cell-based. The conditions noted are these: Escherichia coli, 1411, 24 h, read-out: MIC100. As for the experimental part: as §1, §2
The test system of another data set is Aspergillus niger. The data set can be described thus: In vitro antifungal activity (MIC100, CLSI/NCCLS). It counts as cell-based. The conditions noted are these: A. nig., average of three readings, read-out: MIC 100. As for the experimental part: (§3) The newly synthesized derivatives 4(a–f) and 6(a–f) were screened for their in vitro antifungal activity against different yeast and filamentous fungal pathogens. Minimum inhibitory concentration (MIC100) values for in vitro antifungal activity were determined by the methods recommended by National Committee for Clinical Laboratory Standards (NCCLS). Miconazole was used as standard drug. Dimethyl sulfoxide (DMSO) was used as solvent control.
(§4) In vitro antifungal activity was determined as per CLSI (formerly, NCCLS) guidelines. […] The medium yeast nitrogen base was dissolved in phosphate buffer pH 7 and it was autoclaved at 110 °C for 10 min. With each set a growth control without the antifungal agent and solvent control DMSO were included. The fungal strains were freshly sub cultured on to Sabouraud dextrose agar (SDA) and incubated at 25 °C for 72 h. The fungal cells were suspended in sterile distilled water and diluted to get 10^5 cells/mL. Further, ten microlitres of the standardized suspension was inoculated onto the control plates and the media incorporated with the antifungal agents. The inoculated plates were incubated at 25 °C for 48 h. The readings were taken at the end of 48 h and 72 h. The MIC was the lowest concentration of drug preventing growth of macroscopically visible colonies on drug containing plates when there was visible growth on the drug free control plates.

The next data set concerns Candida glabrata. The data set can be described thus: In vitro antifungal activity (MIC100, CLSI/NCCLS). It counts as cell-based. The note with it: Nakaseomyces glabratus; C. glab.; average of three readings; read-out: MIC 100. As for the experimental part:
as §3, §4

The test system of a further data set is A. flavus. As to the kind of experiment: In vitro antifungal activity (MIC100, CLSI/NCCLS). The note with it: Aspergillus flavus; A. fla.; average of three readings; read-out: MIC 100. It is filed as cell-based. As for the experimental part: as §3, §4
A further data set deals with Cryptococcus neoformans. As to the kind of experiment: In vitro antifungal activity (MIC100, CLSI/NCCLS). It is filed as cell-based. The note with it: C. neo., average of three readings, read-out: MIC 100. The protocol:
as §3, §4

A further data set has as its system Aspergillus fumigates. As to the kind of experiment: In vitro antifungal activity (MIC100, CLSI/NCCLS). It counts as cell-based. The note with it: A. fum., average of three readings, read-out: MIC 100. As for the experimental part:
as §3, §4

The subject of a further data set is Fusarium oxysporum. As to the kind of experiment: In vitro antifungal activity (MIC100, CLSI/NCCLS). It is filed as cell-based. The note with it: F. oxy., average of three readings, read-out: MIC 100. As for the experimental part:
as §3, §4

Another data set deals with Candida albicans. As to the kind of experiment: In vitro antifungal activity (MIC100, CLSI/NCCLS). It counts as cell-based. The conditions noted are these: C. alb., average of three readings, read-out: MIC 100. The protocol: as §3, §4
A further data set addresses DdlB from E.coli (Escherichia coli, UniProt P07862). As to the kind of experiment: D-Alanine-D-alanine ligase (DdlB) enzyme inhibition, malachite green method. It is filed as biochemical. The conditions noted are these: 37 °C, 30 min incubation, 5% DMSO. The protocol:
The key enzyme involved in the peptidoglycan biosynthesis is D-alanine-D-alanine ligase (Ddl), making it an important target for drug discovery. Inhibition of DdlB as an essential enzyme in either Gram-positive or Gram-negative organisms leads to the loss of cell shape and integrity followed by bacterial death. The synthesized derivatives 4(a–f) and 6(a–f) were tested for their inhibitory activity on DdlB from E.coli. The results are presented as IC50 values.
The D-Ala-adding activity of DdlB ligase was monitored by the detection of orthophosphate generated during the reaction based on the colorimetric malachite green method described by Walsh et al.. […] All the compounds were soluble in the assay mixture containing 5% DMSO. After 30 min of incubation, 100 µL Biomol reagent was added. After 5 min, absorbance was read at 650 nm. Residual activity was calculated with respect to a similar assay without inhibitor. To exclude possible non-specific (promiscuous) inhibitors, representative compounds 4(a–f) and 6(a–f) were also tested in the presence of Tween (0.003%), Triton X-114 (0.005%), and SDS (420 µM), as described by McGovern et al.. No significant differences were found when compared to measurements without detergents.

For data set [3], the system named is HeLa (human cervical cancer cell line). As to the kind of experiment: In vitro cytotoxicity, Sulforhodamine B (SRB) assay. It counts as cell-based. The conditions noted are these: up to 80 µg/mL. From the text: (§5) Toxicity scrutiny of synthesized compounds at the early phase of research paves the way to clinical trials and reduces the failure of potential therapeutics at later stages of clinical trials. To scrutinize the safety and selectivity of antimicrobial activity of the synthesized compounds, the compounds 6c and 6f were appraised for their toxicity against HeLa (a human cervical cancer cell line) and PC-3 (human prostate cancer cell line) by the Sulforhodamine B (SRB) assay using adriamycin as a standard drug.
(§6) The images were captured using an Eclipse Ti-S Inverted Research Microscope (Nikon, Tokyo, Japan). Image processing software used was NIS-Elements.
For orientation: The SRB assay estimates cell density from bound dye.

Test in data set [4]: as above
It is filed as cell-based, human. The note with it: human, range 80 to 0.55 μg/mL.
From the text: as §5, §6

The structures appear in SMILES notation. Values after ≈ are worked out from the molar mass of the structure shown. A value given as a limit tells only on which side of the number the result lay.

Take `COc1ccc2occ(C3NC(=S)NC(C)=C3C(=O)NN)c(=O)c2c1` (centres unmarked) [Compound 6f, 4-(6-Methoxy-4-oxo-4H-chromen-3-yl)-6-methyl-2-thioxo-1,2,3,4-tetrahydropyrimidine-5-carbohydrazide]: the MIC in data set [1] is > 200 µg/mL; in data set [2], > 60 µg/mL; in the data set on Escherichia coli 1411, > 60 µg/mL; in the data set on Aspergillus niger, 16 µg/mL (≈ 44.4 µM); in the data set with Candida glabrata it was 25 µg/mL (≈ 69.4 µM); with A. flavus, 15 µg/mL (≈ 41.6 µM). For the same molecule, the MIC was found to be 15 µg/mL (≈ 41.6 µM) in the data set with Cryptococcus neoformans, 33 µg/mL (≈ 91.6 µM) in the data set with Aspergillus fumigates, 28 µg/mL (≈ 77.7 µM) in the data set with Fusarium oxysporum and 24 µg/mL (≈ 66.6 µM) in the data set with Candida albicans. At DdlB from E.coli, the IC50 (commonly the concentration at which inhibition is half-maximal) is > 400 µM. Moreover, the cell inhibition entry in data set [3] is “cell inhibition did not occur”. The GI50 (usually the concentration giving 50% growth inhibition) in data set [4] (HeLa cells, SRB assay) was > 80 µg/mL; in data set [4] (PC-3 cells), > 80 µg/mL.
